pEC50, pIC50: −log10 of the molar value. The source made the active and inactive calls. The rule behind the calls is not given here.
Assays:
[1] = Cytotoxicity against mouse J774.1 cells after 48 hrs; type: cell-based; settings: read-out: ED50
Leishmania major = assay: Antileishmanial activity against Leishmania major MHOM/IL/81/FE/BNI infected in BALB/c mouse; type: functional
Staphylococcus aureus = assay: Antibacterial activity against Staphylococcus aureus assessed as inhibition of biofilm formation; type: functional, organism-based
Plasmodium falciparum [2] = assay: Antiplasmodial activity against Plasmodium falciparum NF54 after 72 hrs; type: functional, organism-based; settings: NF54, 72 h
[3] = tested on: Trypanosoma brucei brucei; assay: Antitrypanosomal activity against Trypanosoma brucei brucei TC221; type: functional; settings: read-out: ED50 (the source's name)
Plasmodium falciparum [4] = assay: Antiplasmodial activity against chloroquine-sensitive Plasmodium falciparum; type: functional, organism-based; settings: for pIC50: Plasmodium falciparum, read-out: IC50
[5] = tested on: Human immunodeficiency virus 1; assay: Antiviral activity against HIV1 NL4/3 replication in PM1 cells; type: functional
[6] = tested on: Human immunodeficiency virus 1; assay: Antiviral activity against HIV1 BaL replication in PM1 cells; type: functional
Plasmodium falciparum [7] = assay: Antiplasmodial activity against Plasmodium falciparum NF54 infected mice (Mus musculus) after 72 hrs; type: functional, organism-based; settings: NF54, 72 h
Plasmodium falciparum [8] = assay: Antiplasmodial activity against chloroquine-sensitive Plasmodium falciparum NF54; type: functional, organism-based
Plasmodium falciparum [9] = assay: Antiplasmodial activity against chloroquine-resistant Plasmodium falciparum; type: functional, organism-based
Plasmodium falciparum [10] = assay: Antiplasmodial activity against Plasmodium falciparum NF54 after 24 hrs; type: functional, organism-based; settings: NF54, 24 h
Plasmodium falciparum [11] = assay: Antiplasmodial activity against Plasmodium falciparum NF54 after 48 hrs; type: functional, organism-based; settings: NF54, 48 h
Plasmodium falciparum [12] = assay: Antiplasmodial activity against Plasmodium falciparum NF54 after 36 hrs; type: functional, organism-based; settings: NF54, 36 h

Row | Compound | CC50 at 48 h [1] [µM] | ED50 (Leishmania major) [µM] | Activity (Staphylococcus aureus) | pEC50 [3] | IC50 (Plasmodium falciparum [4]) | also measured
1 | C[C@@H]1CC2(C[C@H](C)N1)C(=O)N(Cc1ccc([N+](=O)[O-])cc1)C(=O)N2Cc1ccccc1 (stereo partly specified) | 42.4 | >100 | inactive | 5.43 |  | pIC50 (Plasmodium falciparum [2]): 4.84
2 | COC(=O)C1C(=O)C(C(=O)OC)[C@H](c2ccccn2)N(CCOCCO)[C@@H]1c1ccccn1 (stereo partly specified) | 38.5 | 65.04 | inactive |  | Not Active | 
3 | COC(=O)C1C(=O)C(C(=O)OC)[C@H](c2ccc([N+](=O)[O-])cc2)N(Cc2ccccc2)[C@@H]1c1ccc([N+](=O)[O-])cc1 (stereo partly specified) | 18.4 | >100 | inactive | 5.52 |  | Inhibition [5]: 20%; Inhibition [6]: 20%; pIC50 (Plasmodium falciparum [7]): 4.92
4 | COC(=O)C1=C(O)C[C@H](c2ccccn2)N(Cc2cccc(OC)c2)[C@@H]1c1ccccn1 | > 100 | >100 | inactive | < 4.00 |  | 
5 | COC(=O)C1C(=O)C(C(=O)OC)[C@H](c2ccccn2)N(CCCO)[C@@H]1c1ccccn1 (stereo partly specified) | 32 | >100 | inactive | 4.74 | Not Active | 
6 | C=CCN1[C@H](c2ccccn2)C(C(=O)OC)C(=O)C(C(=O)OC)[C@@H]1c1ccccn1 (stereo partly specified) | > 100 | >100 | inactive |  | Not Active | 
7 | COC(=O)C1C(=O)C(C(=O)OC)[C@H](c2ccccn2)N(CCO)[C@@H]1c1ccccn1 (stereo partly specified) | 31.2 | >100 | inactive |  | Not Active | 
8 | CC[C@@H]1CC2(C[C@H](CC)N1)C(=O)N(CCCc1ccccc1)C(=O)N2c1ccccc1 (stereo partly specified) | > 100 | >100 | inactive | 4.87 | Not Active | 
9 | COC(=O)C1C(=O)C(C(=O)OC)[C@H](c2cccc([N+](=O)[O-])c2)N(Cc2ccccc2)[C@@H]1c1cccc([N+](=O)[O-])c1 (stereo partly specified) | > 100 | >100 | inactive |  | Not Active | 
10 | COC(=O)C1C(=O)C(C(=O)OC)[C@H](c2cccc([N+](=O)[O-])c2)N(Cc2ccc(OC)cc2)[C@@H]1c1cccc([N+](=O)[O-])c1 (stereo partly specified) | > 100 | >100 | inactive |  | Not Active | 
11 | Cc1cc(C2CCCCC2)n(O)c(=O)c1 [CICLOPIROX OLAMINE] |  |  |  |  |  | pIC50 (Plasmodium falciparum [8]): 5.09
12 | COC(=O)C1=C(O)C[C@H](c2ccccn2)N(Cc2ccc(OC)cc2)[C@@H]1c1ccccn1 | 29.9 | 30 | inactive | 6.37 |  | 
13 | N[C@@H](Cn1ccc(=O)c(O)c1)C(=O)O [L-MIMOSINE] |  |  |  |  |  | pIC50 (Plasmodium falciparum [4]): 4.49; pIC50 (Plasmodium falciparum [9]): 4.41
14 | CC[C@@H]1CC2(C[C@H](CC)N1)C(=O)N(CCc1ccccc1)C(=O)N2c1ccccc1 (stereo partly specified) | 32.3 | 41.1 | inactive | 4.74 | Not Active | 
15 | C=CCN1[C@H](c2ccc([N+](=O)[O-])cc2)C(C(=O)OC)C(=O)C(C(=O)OC)[C@@H]1c1ccc([N+](=O)[O-])cc1 (stereo partly specified) | 50.3 | >100 | inactive | 5.62 | Not Active | 
16 | CCC[C@@H]1CC2(C[C@H](CCC)N1)C(=O)NC(=O)N2c1ccccc1 (stereo partly specified) | 36 | >100 | inactive | < 4.00 | Not Active | 
17 | Clc1cccc(Cl)c1CON=C1CCN(CCCc2ccccc2)CC1 | > 100 | >100 | inactive | < 4.00 |  | pIC50 (Plasmodium falciparum [4]): 4.51
18 | CC[C@@H]1CC2(C[C@H](CC)N1Cc1ccccc1)C(=O)N(Cc1ccc([N+](=O)[O-])cc1)C(=O)N2c1ccccc1 (stereo partly specified) | > 100 | >100 | inactive | 4.60 | Not Active | 
19 | COC(=O)C1C(=O)C(C(=O)OC)[C@H](c2ccccn2)N(CCCC(=O)O)[C@@H]1c1ccccn1 (stereo partly specified) | 46 | >100 | inactive | 4.71 | Not Active | 
20 | ON=C1CCN(CCCc2ccccc2)CC1 |  |  | inactive |  |  | pIC50 (Plasmodium falciparum [4]): 4.59
21 | COC(=O)C1=C(c2ccccn2)N(Cc2ccccc2)C(c2ccccn2)CC1=O (stereo unspecified) |  |  | inactive | < 4.00 |  | pIC50 (Plasmodium falciparum [10]): 5.33
22 | COC(=O)C1C(=O)[C@H](C(=O)OC)C(c2ccccn2)N[C@@H]1c1ccccn1 (stereo partly specified) | > 100 | >100 | inactive |  | Not Active | 
23 | CCOC(=O)C1C(=O)C(C(=O)OCC)[C@H](c2ccc([N+](=O)[O-])cc2)N(Cc2ccccc2)[C@@H]1c1ccc([N+](=O)[O-])cc1 (stereo partly specified) | > 100 |  | inactive | 5.57 |  | Inhibition [5]: 20%; Inhibition [6]: 20%; pIC50 (Plasmodium falciparum [7]): 5.00

Row | Compound | CC50 at 48 h [1] [µM] | ED50 (Leishmania major) [µM] | Activity (Staphylococcus aureus) | pEC50 [3] | IC50 (Plasmodium falciparum [4]) | also measured
24 | NC(Cn1ccc(=O)c(O)c1)C(=O)O (stereo unspecified) [MIMOSINE] |  |  |  | < 4.00 |  | pIC50 (Plasmodium falciparum [4]): 4.49; pIC50 (Plasmodium falciparum [9]): 4.41
25 | C[C@@H]1CC2(C[C@H](C)N1)C(=O)N(CCO)C(=O)N2Cc1ccccc1 (stereo partly specified) | > 100 | >100 | inactive | < 4.00 | Not Active | 
26 | COC(=O)C1=C(O)C[C@@H](c2ccccn2)N(Cc2ccccc2)[C@H]1c1ccccn1 | 33.2 | 25.97 | inactive |  | Not Active | 
27 | CCCC[C@@H]1CC2(C[C@H](CCCC)N1)C(=O)NC(=O)N2c1ccccc1 (stereo partly specified) |  | >100 | inactive | 4.61 | Not Active | 
28 | COC(=O)C1C(=O)C(C(=O)OC)[C@H](c2cccc([N+](=O)[O-])c2)N(Cc2ccc(Cl)cc2)[C@@H]1c1cccc([N+](=O)[O-])c1 (stereo partly specified) | 46.6 | >100 | inactive |  | Not Active | 
29 | C[C@@H]1CC2(C[C@H](C)N1)C(=O)NC(=O)N2c1ccccc1 (stereo partly specified) | > 100 | >100 | inactive | < 4.00 | Not Active | 
30 | CC[C@@H]1CC2(C[C@H](CC)N1Cc1ccccc1)C(=O)NC(=O)N2c1ccccc1 (stereo partly specified) | > 100 | >100 | inactive | 4.51 | Not Active | 
31 | CC[C@@H]1CC2(C[C@@H](CC)N1)C(=O)NC(=O)N2Cc1ccccc1 (stereo partly specified) | > 100 | >100 | inactive | < 4.00 | Not Active | 
32 | COC(=O)c1c(-c2ccccn2)n(Cc2ccc(C)cc2)c(-c2ccccn2)cc1=O |  |  | inactive |  |  | pIC50 (Plasmodium falciparum [11]): 4.40; pIC50 (Plasmodium falciparum [10]): 5.04
33 | Cl.Clc1cccc(Cl)c1CO/N=C/C1CCN(CCCc2ccccc2)CC1 | 28.4 | 30.72 | inactive |  |  | pIC50 (Plasmodium falciparum [10]): 4.93; pIC50 (Plasmodium falciparum [2]): 5.08
34 | COC(=O)C1=C(O)C[C@H](c2ccccn2)N(Cc2ccc(C)cc2)[C@@H]1c1ccccn1 | 34.9 | 83.83 | inactive | 6.33 |  | 
35 | COC(=O)C1=C(c2ccccn2)N(Cc2ccc(Cl)cc2)C(c2ccccn2)CC1=O (stereo unspecified) |  |  | inactive |  |  | pIC50 (Plasmodium falciparum [10]): 4.74
36 | COC(=O)C1C(=O)C(C(=O)OC)[C@H](c2cccc([N+](=O)[O-])c2)N(Cc2ccc(C)cc2)[C@@H]1c1cccc([N+](=O)[O-])c1 (stereo partly specified) | 49.8 | >100 | inactive |  | Not Active | 
37 | COC(=O)c1c(-c2ccccn2)n(Cc2ccc(Cl)cc2)c(-c2ccccn2)cc1=O | > 100 | >100 | inactive | < 4.00 |  | pIC50 (Plasmodium falciparum [12]): 5.03
38 | N=C(N)c1ccc(OCCCCCOc2ccc(C(=N)N)cc2)cc1 [PENTAMIDINE ISETHIONATE] |  |  |  | 8.57 |  | 
39 | O/N=C/C1CCN(CCCc2ccccc2)CC1 | > 100 | >100 | inactive | < 4.00 |  | 
40 | C=CCN1[C@H](c2ccccc2)C(C(=O)OC)C(=O)C(C(=O)OC)[C@@H]1c1ccccc1 (stereo partly specified) | > 100 |  | inactive |  | Not Active | 
41 | C=CCN1[C@@H](c2ccccn2)C(C(=O)OC)=C(O)C[C@H]1c1ccccn1 | 35 | 50 | inactive |  |  | pIC50 (Plasmodium falciparum [10]): 5.85
42 | COC(=O)C1C(=O)C(C(=O)OC)[C@H](c2ccccn2)N(CCCCCCCC(=O)O)[C@@H]1c1ccccn1 (stereo partly specified) | 33.8 | 50.34 |  |  |  | Activity (Plasmodium falciparum [4]): inactive
43 | NCCCC(N)(C(=O)O)C(F)F (stereo unspecified) [EFLORNITHINE] |  |  |  | 4.64 |  | 
44 | COC(=O)C1C(=O)C(C(=O)OC)[C@H](c2ccccn2)N(Cc2ccccn2)[C@@H]1c1ccccn1 (stereo partly specified) | 29.9 | >100 | inactive | 5.34 | Not Active | 
45 | COC(=O)C1=C(O)C[C@H](c2ccccn2)N(Cc2ccc(Cl)cc2)[C@@H]1c1ccccn1 | 32.8 | 87.93 | inactive | 6.49 |  | pIC50 (Plasmodium falciparum [11]): 5.77; pIC50 (Plasmodium falciparum [2]): 4.92
46 | CC[C@@H]1CC2(C[C@H](CC)N1)C(=O)N(Cc1ccccc1)C(=O)N2c1ccccc1 (stereo partly specified) |  |  | inactive | 4.69 | Not Active | 

Source: ChEMBL document CHEMBL1140714, “In search of novel agents for therapy of tropical diseases and human immunodeficiency virus” (J Med Chem, 2008)
